{
  "source": "patent US20030212123A1",
  "about": "“COX-2 selective carprofen for treating pain and inflammation in dogs” (Pfizer Inc., priority 1997, published 2003)",
  "key": {"[1]": {"test": "Systemic clearance estimated from oral pharmacokinetics", "assay_type": "in vivo, dog", "details": "estimated from pharmacokinetics after oral 2 mg/lb to dogs, F assumed 1, AUC extrapolated to infinity", "method": "where Css is the steady state plasma carprofen concentration, R0 is the input rate, and Cl is the systemic clearance.\nwhere F is the bioavailability (assumed to be 1 for an implant), D is the oral dose, and AUC is the average area under the plasma carprofen concentration vs. time curve, extrapolated to infinity.\nA total dose of 3.6 mg/lb or 8.4 mg/lb or 36 mg/lb would be required for 3, 7, or 30 day therapy, respectively. In summary, an implant containing 8.4 mg carprofen per lb body weight, releasing carprofen at a rate of 50 μg per lb of body weight per hr, maintains a plasma carprofen concentration of 10 μg/mL for 7 days. This will maintain 80% COX-2 inhibition for 7 days."}, "[2]": {"test": "Total plasma carprofen concentration by chiral HPLC, Example 3", "assay_type": "in vivo, dog", "details": "individual dogs", "description": "(§1) The ether layer was separated, then back-extracted with 0.005 M Na2CO3, after which the organic phase was discarded by aspiration. The aqueous phase was buffered with 0.05 M citric acid pH 5.1, then was again extracted with diethyl ether:dichloromethane. The ether was then transferred to clean tubes, evaporated under a stream of nitrogen, and the residue reconstituted in HPLC mobile phase for analysis.\nas §1"}, "COX-2 [3]": {"target": "T1, COX-2 (Canis lupus familiaris, UniProt Q8SPQ9)", "T1 sequence (Q8SPQ9 18-604)": "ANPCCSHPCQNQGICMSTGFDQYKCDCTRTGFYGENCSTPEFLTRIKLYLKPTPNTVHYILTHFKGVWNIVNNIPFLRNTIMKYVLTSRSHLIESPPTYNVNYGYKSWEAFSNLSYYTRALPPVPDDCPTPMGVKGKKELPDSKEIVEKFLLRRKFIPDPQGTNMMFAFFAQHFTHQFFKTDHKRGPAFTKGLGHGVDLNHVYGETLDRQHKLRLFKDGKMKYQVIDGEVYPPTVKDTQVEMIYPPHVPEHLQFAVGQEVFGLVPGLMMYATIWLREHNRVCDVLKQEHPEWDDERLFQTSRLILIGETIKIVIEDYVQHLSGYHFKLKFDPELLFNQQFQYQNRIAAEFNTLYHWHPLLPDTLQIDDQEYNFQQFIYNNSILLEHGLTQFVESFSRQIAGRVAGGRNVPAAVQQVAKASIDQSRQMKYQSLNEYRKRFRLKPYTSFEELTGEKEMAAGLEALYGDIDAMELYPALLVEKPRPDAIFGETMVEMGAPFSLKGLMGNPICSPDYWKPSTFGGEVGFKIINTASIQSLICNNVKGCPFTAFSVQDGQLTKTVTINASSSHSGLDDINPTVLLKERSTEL", "test": "in vivo", "details": "for PGE2 Pg/mL/Well: 2 mg/kg PO 30 min before carrageenan, exudate fluid, group average; for inhibition at 2 mg/kg: dog, po", "method": "This objective of this study was to monitor in vivo COX-2 activity in a subcutaneously implanted chamber during an induced inflammation. The COX-2 enzyme can be detected by western analysis as early as 5 hours after carrageenan treatments (T. Kirchner et al., J. Pharmacol. Exp. Ther. (1997) 282, 1094-1101). […] Six beagle dogs had polyethylene “whiffle” golf balls approximately 4.2 cm in outer diameter surgically implanted under the skin just behind the shoulder blades.\nThe experiment was run in two replicates. […] The hair around the ball was shaved and the area was probed to locate a hole in the whiffle ball. This area was then marked and it was sterilized with 2% iodine tincture. […] EF samples were taken at 0, 5, and 24 hours after carrageenan injection.\nThe column was first washed with 10 mL of 0.1 M phosphate buffer then 10 mL water. The EF was then diluted 1:5 with 0.1 M phosphate buffer and added to the column. The column was washed with 10 mL of the phosphate buffer, then 10 mL of water. Finally, the PGE2 was removed from the column with 2.5 mL 95% ethanol."}, "COX-2 [4]": {"target": "COX-2 (Rattus norvegicus, UniProt P35355)", "sequence (P35355 18-604)": "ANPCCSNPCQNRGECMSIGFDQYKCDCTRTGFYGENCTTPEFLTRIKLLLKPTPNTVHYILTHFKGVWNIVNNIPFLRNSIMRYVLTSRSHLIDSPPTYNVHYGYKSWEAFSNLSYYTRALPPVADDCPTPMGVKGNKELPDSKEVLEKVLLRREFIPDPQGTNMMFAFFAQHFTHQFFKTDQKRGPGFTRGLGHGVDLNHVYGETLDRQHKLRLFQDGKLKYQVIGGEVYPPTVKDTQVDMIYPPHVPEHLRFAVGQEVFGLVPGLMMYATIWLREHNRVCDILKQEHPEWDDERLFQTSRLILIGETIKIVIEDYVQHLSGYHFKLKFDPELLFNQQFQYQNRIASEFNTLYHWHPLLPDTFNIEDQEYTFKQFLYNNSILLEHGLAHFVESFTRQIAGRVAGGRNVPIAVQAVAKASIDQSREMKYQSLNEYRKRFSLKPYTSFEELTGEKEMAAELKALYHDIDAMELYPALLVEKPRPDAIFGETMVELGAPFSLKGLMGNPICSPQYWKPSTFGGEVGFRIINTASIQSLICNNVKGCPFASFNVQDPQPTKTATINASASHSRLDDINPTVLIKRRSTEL", "test": "in vivo", "details": "read-out: COX-2 ED50", "method": "(§2) In vivo cyclo-oxygenase selectivity was evaluated in rats by the method of Griffiths et al., described in Agents & Actions, 32, (1991), 313-320. […] Synovial fluid is secreted by the synovial membrane and is contained in joint cavities. During joint inflammation, COX-2 is induced in joint tissues and prostaglandin products accumulate in the synovial fluid. […] Inhibition of this stomach isozyme results in adverse gastrointestinal side effects."}, "[5]": {"target": "COX-2 (derived from lipopolysaccharide stimulated J774.2 macrophages) (Mus musculus, UniProt Q05769)", "sequence (Q05769 18-604)": "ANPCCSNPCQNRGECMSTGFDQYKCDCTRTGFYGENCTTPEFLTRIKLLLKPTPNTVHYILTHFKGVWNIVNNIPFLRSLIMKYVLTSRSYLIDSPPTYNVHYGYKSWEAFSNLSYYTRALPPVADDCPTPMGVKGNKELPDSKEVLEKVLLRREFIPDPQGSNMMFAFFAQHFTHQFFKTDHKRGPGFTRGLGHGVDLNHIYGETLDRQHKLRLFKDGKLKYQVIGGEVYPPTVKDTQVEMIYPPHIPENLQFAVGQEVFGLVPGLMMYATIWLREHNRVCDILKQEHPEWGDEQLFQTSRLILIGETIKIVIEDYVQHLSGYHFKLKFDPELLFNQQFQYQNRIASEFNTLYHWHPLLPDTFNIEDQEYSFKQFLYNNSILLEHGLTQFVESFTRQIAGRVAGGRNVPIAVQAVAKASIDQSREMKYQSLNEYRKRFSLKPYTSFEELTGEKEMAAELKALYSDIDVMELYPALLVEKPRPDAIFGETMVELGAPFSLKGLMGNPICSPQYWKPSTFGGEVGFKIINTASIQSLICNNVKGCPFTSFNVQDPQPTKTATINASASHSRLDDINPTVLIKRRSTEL", "details": "cited from earlier work"}, "COX-2 [6]": {"target": "T1, COX-2", "test": "in vivo", "details": "for PGE2 Pg/mL/Well: group average; for inhibition at 2 mg/kg / inhibition at 10 mg/kg: dog, po", "method": "A zero-hour blood sample was collected from all dogs in the study prior to dosing, followed by 1-, 3-, and 6-hour post-dose blood sample collections. […] Test tubes used as controls contained vehicle and were unstimulated by the addition of any agent. A 500 μL sample of blood was added to each of the above-described test tubes, after which they were incubated at 37° C. for one hr in the case of the calcium ionophore-containing test tubes, and overnight in the case of the LPS-containing test tubes. After incubation, 10 μL of EDTA was added to give a final concentration of 0.3%, in order to prevent coagulation of the plasma which sometimes occurs after thawing frozen plasma samples. The incubated samples were centrifuged at 4° C. and the resulting plasma sample of ˜200 μL was collected and stored at −20° C. in polypropylene 96-well plates. In order to determine endpoints for this study, enzyme immunoassay (EIA) kits available from Cayman were used to measure production of TXB2 and PGE2, utilizing the principle of competitive binding of tracer to antibody and endpoint determination by colorimetry.\nThe data is expressed as treatment group averages in pg/mL of TXB2 and PGE2 produced per sample. Plasma dilution was not factored in said data values."}, "COX-1": {"target": "T2, COX-1 (Rattus norvegicus, UniProt Q63921)", "T2 construct": "as measured in the mucosal lining of the rat stomach; from tissue; host or cells: mucosal lining of the rat stomach, in vivo", "T2 sequence (Q63921 27-602)": "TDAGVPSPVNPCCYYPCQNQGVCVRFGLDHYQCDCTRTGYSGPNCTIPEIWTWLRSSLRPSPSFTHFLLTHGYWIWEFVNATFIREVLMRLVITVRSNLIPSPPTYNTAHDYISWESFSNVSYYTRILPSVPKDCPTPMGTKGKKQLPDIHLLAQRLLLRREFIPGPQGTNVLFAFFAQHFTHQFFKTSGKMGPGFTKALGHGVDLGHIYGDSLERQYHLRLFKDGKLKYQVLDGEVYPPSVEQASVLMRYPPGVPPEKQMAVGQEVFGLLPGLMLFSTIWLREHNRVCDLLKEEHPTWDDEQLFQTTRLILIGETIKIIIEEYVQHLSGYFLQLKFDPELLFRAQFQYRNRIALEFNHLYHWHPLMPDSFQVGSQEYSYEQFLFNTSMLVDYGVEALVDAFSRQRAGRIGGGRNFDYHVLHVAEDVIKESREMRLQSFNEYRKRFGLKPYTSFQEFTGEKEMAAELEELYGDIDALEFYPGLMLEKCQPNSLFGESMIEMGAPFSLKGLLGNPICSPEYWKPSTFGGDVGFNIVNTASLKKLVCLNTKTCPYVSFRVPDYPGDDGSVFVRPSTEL", "test": "Rat in vivo COX-1: PGE2 production in mucosal lining of stomach (Griffiths et al.)", "method": "as §2"}},
  "note": "Several values for one entry are separate records, joined by “and”; a condition that tells them apart may be missing. Equal values may be shown once. Read-outs that look alike come from different tables or passages of the source.",
  "data": [
    {"compound": "CC(C(=O)O)c1ccc2c(c1)[nH]c1ccc(Cl)cc12", "note": "(racemic) [Carprofen (rac.), 6-chloro-α-methyl-9H-carbazole-2-acetic acid]", "values": [
      {"measurement": "systemic clearance Cl", "setting": "[1]", "value": 5, "unit": "mL/hr per lb body weight"},
      {"measurement": "Plasma concentration", "setting": "[2]; 2 mg/kg PO tablet, 2-hour", "value": "21900 ng/mL and 8600 ng/mL and 17200 ng/mL"},
      {"measurement": "Plasma concentration", "setting": "[2]; 2 mg/kg PO tablet, 4-hour", "value": "13400 ng/mL and 5700 ng/mL and 10600 ng/mL"},
      {"measurement": "Plasma concentration", "setting": "[2]; 4 mg/kg PO tablet, 2-hour", "value": "29900 ng/mL and 29000 ng/mL"},
      {"measurement": "Plasma concentration", "setting": "[2]; 4 mg/kg PO tablet, 4-hour", "value": "21100 ng/mL and 27000 ng/mL"},
      {"measurement": "concentration at 2 h", "setting": "[2]; dog, plasma, oral, 4 mg/kg, 4 mg/kg PO tablet, 2-hour", "value": 37600, "unit": "ng/mL"},
      {"measurement": "concentration at 4 h", "setting": "[2]; dog, plasma, oral, 4 mg/kg, 4 mg/kg PO tablet, 4-hour", "value": 29100, "unit": "ng/mL"},
      {"measurement": "PGE2 Pg/mL/Well", "setting": "COX-2 [3]; 0-hour", "value": 6.5, "unit": "Pg/mL/Well"},
      {"measurement": "PGE2 Pg/mL/Well", "setting": "COX-2 [3]; 5-hour", "value": 1.9, "unit": "Pg/mL/Well"},
      {"measurement": "PGE2 Pg/mL/Well", "setting": "COX-2 [3]; 24-hour", "value": 3.2, "unit": "Pg/mL/Well"},
      {"measurement": "inhibition at 2 mg/kg", "setting": "COX-2 [3]; read-out: In vivo COX-2 activity Percent Inhibition, 2 mg/kg PO, 5-hour after carrageenan, group average", "value": 71, "unit": "%"},
      {"measurement": "inhibition at 2 mg/kg", "setting": "COX-2 [3]; read-out: In vivo COX-2 activity Percent Inhibition, 2 mg/kg PO, 24-hour after carrageenan, group average", "value": 51, "unit": "%"},
      {"measurement": "ED50", "setting": "COX-2 [4]", "value": 0.63, "unit": "mg/kg"},
      {"measurement": "IC50", "setting": "[5]; read-out: IC50 (μM) COX-2, as shown by Battistini et al.", "value": 11, "unit": "µM"},
      {"measurement": "IC50", "setting": "[5]; read-out: IC50 (μg/mL) COX-2, n=9, LPS stimulated J774.2 macrophages", "value": 11, "unit": "µM"},
      {"measurement": "PGE2 Pg/mL/Well", "setting": "COX-2 [6]; 2 mg/kg PO capsule, 0-hour (pre-dose)", "value": 511, "unit": "Pg/mL/Well"},
      {"measurement": "PGE2 Pg/mL/Well", "setting": "COX-2 [6]; 2 mg/kg PO capsule, 1-hour post-dose", "value": 33, "unit": "Pg/mL/Well"},
      {"measurement": "PGE2 Pg/mL/Well", "setting": "COX-2 [6]; 2 mg/kg PO capsule, 3-hour post-dose", "value": 98, "unit": "Pg/mL/Well"},
      {"measurement": "PGE2 Pg/mL/Well", "setting": "COX-2 [6]; 2 mg/kg PO capsule, 6-hour post-dose", "value": 190, "unit": "Pg/mL/Well"},
      {"measurement": "PGE2 Pg/mL/Well", "setting": "COX-2 [6]; 10 mg/kg PO capsule, 0-hour (pre-dose)", "value": 336, "unit": "Pg/mL/Well"},
      {"measurement": "PGE2 Pg/mL/Well", "setting": "COX-2 [6]; 10 mg/kg PO capsule, 1-hour post-dose", "value": 19, "unit": "Pg/mL/Well"},
      {"measurement": "PGE2 Pg/mL/Well", "setting": "COX-2 [6]; 10 mg/kg PO capsule, 3-hour post-dose", "value": 12, "unit": "Pg/mL/Well"},
      {"measurement": "PGE2 Pg/mL/Well", "setting": "COX-2 [6]; 10 mg/kg PO capsule, 6-hour post-dose", "value": 12, "unit": "Pg/mL/Well"},
      {"measurement": "inhibition at 2 mg/kg", "setting": "COX-2 [6]; read-out: COX-2 activity Percent Inhibition, 2 mg/kg PO capsule, 1-hour, based on zero hour value", "value": 94, "unit": "%"},
      {"measurement": "inhibition at 2 mg/kg", "setting": "COX-2 [6]; read-out: COX-2 activity Percent Inhibition, 2 mg/kg PO capsule, 3-hour, based on zero hour value", "value": 81, "unit": "%"},
      {"measurement": "inhibition at 2 mg/kg", "setting": "COX-2 [6]; read-out: COX-2 activity Percent Inhibition, 2 mg/kg PO capsule, 6-hour, based on zero hour value", "value": 63, "unit": "%"},
      {"measurement": "inhibition at 10 mg/kg", "setting": "COX-2 [6]; read-out: COX-2 activity Percent Inhibition, 10 mg/kg PO capsule, 1-hour, based on zero hour value", "value": 94, "unit": "%"},
      {"measurement": "inhibition at 10 mg/kg", "setting": "COX-2 [6]; read-out: COX-2 activity Percent Inhibition, 10 mg/kg PO capsule, 3-hour, based on zero hour value", "value": 96, "unit": "%"},
      {"measurement": "inhibition at 10 mg/kg", "setting": "COX-2 [6]; read-out: COX-2 activity Percent Inhibition, 10 mg/kg PO capsule, 6-hour, based on zero hour value", "value": 96, "unit": "%"},
      {"measurement": "ED50", "setting": "COX-1", "value": 6.4, "unit": "mg/kg"}
    ]}
  ]
}
